Experimental data as given in US20080171720A1, “Nutritional Supplement For Hiv Patients” (N.V. Nutricia, priority 2005, published 2008).

Tested on: intestinal tight junction permeability
Assay: Inflammatory mediated intestinal tight junction permeability
Details: no method or data given

CCCCC/C=C\C/C=C\C/C=C\CCCCC(=O)O [GLA, gamma linolenic acid]
reduction of inflammatory mediated intestinal tight junction permeability: effectively reduce inflammatory mediated intestinal tight junction permeability
